We go through four compounds from patent publication US11286258B2, “Nature-inspired anticancer and antibacterial motifs and pharmaceutical composition thereof” (University of Sharjah, priority 2020, dated 2022).

The test system of test [1] is HCT-116. Nature of the test: MTT cell viability, HCT-116. Format: cell-based. To be noted: Homo sapiens, colon cancer, 48 h of drug treatment, average of three experiments. The text has this: (§1) Cell culture: In this study five different cancer cell lines were used, human lung carcinoma (A549), human breast adenoma (MCF-7), Cervical carcinoma (Hela), hepatocellular carcinoma (Hep3B), and colorectal adenocarcinoma (HCT-116). These cells were obtained from the European Collection of Cell Cultures (ECACC, UK). Hep3B cells were maintained in Dulbecco's Modified Eagle Medium (DMEM: Sigma-Aldrich), and the four other cell lines were maintained in Roswell Park Memorial Institute medium (RPMI, Sigma-Aldrich, St. Louis, Mo., USA), which was supplemented with 10% fetal bovine serum (FBS, Sigma-Aldrich) and 1% penicillin/streptomycin (Sigma-Aldrich). Cells were incubated all the time at 37° C. in a humidified atmosphere of 5% CO2. Cell viability studies: Cell viability was assessed using the MTT assay as described before. In brief, all cancer cell lines were seeded at a density of 4×10^4/well in 96 well flat-bottom plates. After 24 h from seeding, cells were treated with the synthesized compounds and left for an incubation period of 48 h. Upon reaching the indicated time point, the media was removed and replaced with 200 μL fresh media containing 0.5 mg/mL of MTT tetrazolium dye (Sigma-Aldrich). Cells were then incubated with MTT solution for 2 h at 37° C. The resultant formazan crystals were dissolved in 200 μl/well of DMSO and absorbance was measured at 570 nm using a microplate reader (Thermo Scientific).

Test [2] concerns E. coli ATCC25922. Put plainly: MIC broth microdilution, E. coli ATCC25922. Conditions: Escherichia coli, ATCC25922; not MDR; overnight incubation. Format: cell-based, Escherichia coli. In outline:
(§2)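 Broth microdilution per CLSI M07-A10 in Mueller-Hinton broth, ~5×10^5 CFU/mL exponential-phase inoculum, two-fold dilutions over 100-0.78 μg/mL. Plates incubated overnight at 37° C; MIC taken as lowest concentration without visible turbidity.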
A general note: In broth dilution the organism is exposed to a series of concentrations in liquid medium.

In test [3] the test system is MRSA-3 (clinical isolate). Nature of the test: MIC broth microdilution, MRSA-3. Conditions: Staphylococcus aureus, MRSA; overnight incubation, Mueller-Hinton broth; read-out: MIC MRSA-3 (clinical isolate). Format: cell-based, Staphylococcus aureus. The method in brief: (§3)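 Visible turbidity served as the growth read-out, and MIC was recorded as the lowest inhibiting concentration following overnight incubation at 37° C. Testing followed CLSI broth microdilution in Mueller-Hinton medium, inoculum near 5×10^5 CFU/mL, compound range 100-0.78 μg/mL in two-fold steps.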

The test system of test [4] is HELA. Put plainly: MTT cell viability, HELA. The class given is cell-based. Conditions: Homo sapiens, cervical cancer, 48 h of drug treatment, average of three experiments.
Text: as §1

In test [5] the test system is MRSA-2 (clinical isolate). Put plainly: MIC broth microdilution, MRSA-2. The class given is cell-based, Staphylococcus aureus. To be noted: Staphylococcus aureus, MRSA; overnight incubation, Mueller-Hinton broth; read-out: MIC MRSA-2 (clinical isolate). The method in brief:
as §3

Test [6] relates to MRSA-ATCC33592. Put plainly: MIC broth microdilution, MRSA ATCC33592. The class given is cell-based, Staphylococcus aureus. Conditions: Staphylococcus aureus; overnight incubation, Mueller-Hinton broth; read-out: MIC MRSA-ATCC33592. The method in brief:
as §3

Test [7] deals with Acinetobacter baumannii ATCC 19606. Put plainly: MIC broth microdilution, A. baumannii ATCC 19606. The class given is cell-based. To be noted: Acinetobacter baumannii, ATCC19606; not MDR; overnight incubation. The method in brief: as §3
Test [8] has as its system HEP3B. Nature of the test: MTT cell viability, HEP3B. The class given is cell-based. To be noted: Homo sapiens, liver cancer, 48 h of drug treatment, average of three experiments.
Text: as §1

Test [9] relates to MRSA-1 (clinical isolate). Nature of the test: MIC broth microdilution, MRSA-1. To be noted: Staphylococcus aureus, MRSA; overnight incubation, Mueller-Hinton broth; read-out: MIC MRSA-1 (clinical isolate). Format: cell-based, Staphylococcus aureus. In outline: as §3
In test [10] the test system is MRSA-ATCC33591. Put plainly: MIC broth microdilution, MRSA ATCC33591. To be noted: Staphylococcus aureus; overnight incubation, Mueller-Hinton broth; read-out: MIC MRSA-ATCC33591. The class given is cell-based, Staphylococcus aureus. In outline:
as §3

For test [11], the system named is E. coli ATCC BAA2469 (NDM-1 carbapenem-resistant). Nature of the test: MIC broth microdilution, E. coli ATCC BAA2469. To be noted: overnight incubation; for MIC: Escherichia coli, ATCCBAA2469, MDR; for MIC E. coli ATCC BAA2469 (NDM-1 carbapenem-resistant): MDR. The class given is cell-based, Escherichia coli. In outline: as §2
For test [12], the system named is MCF-7. Nature of the test: MTT cell viability, MCF-7. Format: cell-based. Conditions: Homo sapiens, MCF7; breast cancer; 48 h of drug treatment; average of three experiments.
Text: as §1

Test [13] has as its system Acinetobacter baumannii ATCC BAA1605 (carbapenem-resistant). Put plainly: MIC broth microdilution, A. baumannii ATCC BAA1605. Format: cell-based. Conditions: Acinetobacter baumannii, ATCCBAA1605, MDR; overnight incubation. In outline:
as §2

The test system of test [14] is E. coli CDC-AR-0346 (ESBL, colistin resistant). Nature of the test: MIC broth microdilution, E. coli CDC-AR-0346. The class given is cell-based, Escherichia coli. Conditions: for MIC fold higher than that of colistin: E. coli CDC-AR-0346, colistin 6.25 μg/mL; for MIC: Escherichia coli, MDR, overnight incubation. The method in brief: as §2
Test [15] has as its system normal epithelial cells (HMEC). Put plainly: Cell viability, normal epithelial cells. The class given is cell-based. To be noted: Homo sapiens, 48 h of drug treatment, average of three experiments. Here is the method: Cell viability studies: Cell viability was assessed using the MTT assay as described before. In brief, all cancer cell lines were seeded at a density of 4×10^4/well in 96 well flat-bottom plates. After 24 h from seeding, cells were treated with the synthesized compounds and left for an incubation period of 48 h. Upon reaching the indicated time point, the media was removed and replaced with 200 μL fresh media containing 0.5 mg/mL of MTT tetrazolium dye (Sigma-Aldrich). Cells were then incubated with MTT solution for 2 h at 37° C. The resultant formazan crystals were dissolved in 200 μl/well of DMSO and absorbance was measured at 570 nm using a microplate reader (Thermo Scientific).

Values after ≈ are worked out from the molar mass of the structure shown.

Broadly, the IC50 is the concentration needed to halve the response being measured. A word on the MIC: it is the smallest concentration in the dilution series that meets the test's criterion for growth inhibition.

Consider `FC(F)(F)c1ccc(N/N=C2\C=C[C@@]3(CC2)CC[C@@H]2NCCc4c2n3c2ccccc42)cc1` (racemic) [Compound 1e], for which the IC50 stood at 0.487 ± 0.03 µM in test [1]; 2.56 ± 0.58 µM in test [4]; 2.03 ± 0.08 µM in test [8]; 1.86 ± 0.03 µM in test [12]; 2.91 ± 0.07 µM in test [15]. The MIC is 6.25 µg/mL (≈ 13.9 µM) in test [2]; 1.56 µg/mL (≈ 3.46 µM) in test [3]; 1.56 µg/mL (≈ 3.46 µM) in [5]; 3.12 µg/mL (≈ 6.94 µM) in test [6]; 6.25 µg/mL (≈ 13.9 µM) in [7]; 1.56 µg/mL (≈ 3.46 µM) in [9]. Also, the MIC in [10] was 3.12 µg/mL (≈ 6.94 µM); in test [11], 6.25 to 12.5 µg/mL (≈ 13.9 to 27.7 µM); in [13], 12.5 µg/mL (≈ 27.7 µM); in test [14], 12.5 µg/mL (≈ 27.7 µM). Further, the “MIC E. coli ATCC BAA2469 (NDM-1 carbapenem-resistant)” value in [11] was determined as 12.5 µg/mL (≈ 27.7 µM). Moreover, in test [14], the “MIC fold higher than that of colistin” value came out at 2 fold.

As to `FC(F)(F)Oc1ccc(N/N=C2\C=C[C@@]3(CC2)CC[C@@H]2NCCc4c2n3c2ccccc42)cc1` [Compound 1f], the IC50 worked out at 1.96 ± 0.05 µM in test [1]; 3.89 ± 0.07 µM in [4]; 2.64 ± 0.03 µM in [8]; 3.56 ± 0.1 µM in [12]; 18.38 ± 0.05 µM in [15]. In addition, the MIC in [2] amounted to 12.5 µg/mL (≈ 26.8 µM); in test [3], 6.25 µg/mL (≈ 13.4 µM); in test [5], 6.25 µg/mL (≈ 13.4 µM); in [6], 6.25 µg/mL (≈ 13.4 µM); in test [7], 12.5 µg/mL (≈ 26.8 µM); in test [9] it was 6.25 µg/mL (≈ 13.4 µM). The MIC worked out at 6.25 µg/mL (≈ 13.4 µM) in test [10], 25 µg/mL (≈ 53.6 µM) in test [11], 25 µg/mL (≈ 53.6 µM) in test [13] and 25 µg/mL (≈ 53.6 µM) in test [14].

Regarding `Cc1ccc2c(c1)c1c3n2[C@@]2(C=C/C(=N\Nc4ccc(C(F)(F)F)cc4)CC2)CC[C@@H]3NCC1` [Compound 1h], the IC50 in [1] is 1.78 ± 0.7 µM; in test [4], 3.5 ± 0.06 µM; in test [8], 2.56 ± 0.07 µM; in test [12], 3.72 ± 0.05 µM; in [15] it was 11.53 ± 0.04 µM. For the same compound, the MIC in test [2] was determined as 12.5 µg/mL (≈ 26.9 µM); in test [3] it was 1.56 µg/mL (≈ 3.36 µM); in test [5], 1.56 µg/mL (≈ 3.36 µM); in test [6], 1.56 µg/mL (≈ 3.36 µM); in [7], 6.25 µg/mL (≈ 13.5 µM); in [9], 1.56 µg/mL (≈ 3.36 µM). The MIC in test [10] is 1.56 µg/mL (≈ 3.36 µM); in test [11] it was 6.25 to 12.5 µg/mL (≈ 13.5 to 26.9 µM); in test [13] it was 25 µg/mL (≈ 53.8 µM); in test [14] it was 12.5 µg/mL (≈ 26.9 µM). In [11], the “MIC E. coli ATCC BAA2469 (NDM-1 carbapenem-resistant)” value turned out to be 12.5 µg/mL (≈ 26.9 µM). Moreover, the “MIC fold higher than that of colistin” value in test [14] came out at 2 fold.

For the compound `COc1ccc2c(c1)c1c3n2[C@@]2(C=C/C(=N\Nc4ccc(C(F)(F)F)cc4)CC2)CC[C@@H]3NCC1` [Compound 1k], the IC50 in test [1] worked out at 3.39 ± 0.04 µM; in test [4] it was 4.514 ± 0.03 µM; in [8], 2.276 ± 0.01 µM; in test [12], 3.57 ± 0.34 µM; in test [15], 28.01 ± 0.09 µM. The MIC in test [2] amounted to 6.25 µg/mL (≈ 13 µM); in test [3], 1.56 µg/mL (≈ 3.25 µM); in [5] it was 1.56 µg/mL (≈ 3.25 µM); in test [6], 3.12 µg/mL (≈ 6.5 µM); in test [7], 6.25 µg/mL (≈ 13 µM); in [9], 1.56 µg/mL (≈ 3.25 µM). The MIC in [10] is 3.12 µg/mL (≈ 6.5 µM); in test [11], 25 µg/mL (≈ 52 µM); in [13], 50 µg/mL (≈ 104 µM); in test [14], 50 µg/mL (≈ 104 µM).
